Target: T1, GIRK 1/2 (Homo sapiens, UniProt P48051+P48549)
T1 construct: expressed in transfected cells; host or cells: HEK293
T1 sequence (P48549 1-501): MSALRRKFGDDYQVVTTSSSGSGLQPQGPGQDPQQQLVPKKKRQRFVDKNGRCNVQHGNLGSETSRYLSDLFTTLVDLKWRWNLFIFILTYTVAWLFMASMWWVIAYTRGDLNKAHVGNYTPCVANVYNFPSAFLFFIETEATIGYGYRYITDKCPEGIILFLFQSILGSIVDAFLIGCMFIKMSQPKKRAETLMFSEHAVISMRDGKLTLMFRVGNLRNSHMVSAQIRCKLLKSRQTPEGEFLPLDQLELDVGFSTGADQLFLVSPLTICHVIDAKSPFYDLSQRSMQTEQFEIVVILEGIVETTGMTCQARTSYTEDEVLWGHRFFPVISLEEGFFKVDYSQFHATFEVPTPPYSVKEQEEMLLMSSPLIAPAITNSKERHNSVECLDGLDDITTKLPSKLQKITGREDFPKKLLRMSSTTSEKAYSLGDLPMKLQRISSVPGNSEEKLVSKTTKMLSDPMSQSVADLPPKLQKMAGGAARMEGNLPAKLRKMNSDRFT
T1 sequence (P48051 1-423): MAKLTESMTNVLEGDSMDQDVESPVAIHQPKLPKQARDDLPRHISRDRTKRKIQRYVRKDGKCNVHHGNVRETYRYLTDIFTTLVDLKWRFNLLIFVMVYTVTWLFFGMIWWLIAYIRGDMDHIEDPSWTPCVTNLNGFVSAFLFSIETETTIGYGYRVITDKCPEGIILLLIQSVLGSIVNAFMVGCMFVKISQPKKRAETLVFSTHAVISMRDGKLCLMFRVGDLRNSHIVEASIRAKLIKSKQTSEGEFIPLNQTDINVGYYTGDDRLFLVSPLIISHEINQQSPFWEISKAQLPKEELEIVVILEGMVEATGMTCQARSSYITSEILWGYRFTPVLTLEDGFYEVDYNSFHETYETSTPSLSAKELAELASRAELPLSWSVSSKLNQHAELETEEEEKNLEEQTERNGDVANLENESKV
Assay: Tl+-flux selectivity panel in HEK-293 cells: GIRK 1/2
Type: cell-based
Settings: HEK293, 10 µM test compound, relative to control SCH23390, read-out: Percent Inhibition ± SEM
Experimental: With a handful of analogs that offered improved SLACK potency relative to hit compound 8, we next proceeded to investigate the ancillary pharmacology of such compounds, both with respect to other Slo family members as well as versus a spectrum of diverse ion channels (Table 5). Thus, we screened four compounds (32, 48, 70, and 71) at 10 µM in our in-house selectivity panel of Tl^+-flux assays in HEK-293 cells stably expressing the target of interest. […] Some valuable SAR was noted as well. […] Reduction of inhibition at Maxi-K α1/β4 also followed. This SAR will be important to bear in mind for continued optimization within this series. […] Of particular note is the lack of significant hERG activity in this series, as activity versus that counter-target has been an issue with other SLACK inhibitors.
Stably transfected monoclonal HEK293 cell lines expressing Slick, Maxi-K α1/β3, Maxi-K α1/β4, CaV3.2, GIRK 1/2, KV2.1, KV7.2, NaV1.7, and TASK-1 were generated as previously described. Stably transfected monoclonal HEK293 cell lines expressing hERG were generated as previously described. CHO-K1 cells expressing human Slack and disease-associated human Slack mutations, G288S and A934T, were generated by transfecting a PiggyBac TRE mammalian expression vector (VectorBuilder, Chicago, IL, USA) containing KCNT1. FuGENE 6 (Promega, Madison, WI, USA) transfection reagent and protocol, together with Opti-MEM (Thermo Fisher Scientific, Walkham, MA, USA), were utilized.
The Tl^+ flux assays were conducted as previously described with modifications optimized for individual cell lines as described below. Following removal of cell culture media, cells were loaded with Tl^+-sensitive dye loading solution containing Thallos-AM (ION Biosciences, San Marcos, TX, USA), 1.25 mM Probenecid, and 0.3% Pluronic F-127 (MilliporeSigma, Burlington, MA, USA), in assay buffer comprised of Hanks Balanced Salt Solution (HBSS) (Thermo Fisher Scientific, Waltham, MA, USA) and 20 mM HEPES (Corning, Corning, NY, USA) at room temperature for one-hour. Dye loading solution was replaced with 20 μL/well of assay buffer prior to assaying. Cell plates were then loaded onto a Panoptic kinetic imaging plate reader (WaveFront Biosciences, Franklin, TN, USA). Data were acquired at 5 Hz (excitation 482 ± 35 nm, emission 536 ± 40 nm) for 10 s, at which time 20 μL/well of test compounds in assay buffer at 2-fold above the desired final concentration was added and allowed to incubate for 120 s. Next, 10 μL/well of Tl^+ stimulus buffer (129 mM Na gluconate, 1.2 mM CaSO4, 1 MgSO4, 1 mM Na2HPO4, 4.17 mM NaHCO3, 5.56 mM glucose, 2.5 mM Tl2SO4, and 10 mM HEPES pH 7.3) was added. Imaging was concluded after an additional 120 s.

Structure (SMILES) | inhibition at 10 µM
CN(Cc1cccc(F)c1)c1nc2c(c(=O)n(Cc3ccccc3)c(=O)n2C)n1C [Analog 48] | 32 ± 3%
COc1cccc(Cn2c(=O)c3c(nc(N(C)Cc4ccccc4)n3C)n(C)c2=O)c1 [Analog 32] | 19 ± 1.7%
CCCCN(Cc1ccccc1)c1nc2c(c(=O)n(Cc3ccccc3)c(=O)n2C)n1C [Analog 70] | 9.2 ± 1.4%
Cn1c(N(Cc2ccccc2)CC2CC2)nc2c1c(=O)n(Cc1ccccc1)c(=O)n2C [Analog 71] | 12 ± 0.5%

Source: PMC11173529, “Structure–Activity Relationship Studies in a Series of Xanthine Inhibitors of SLACK Potassium Channels” (Molecules, 2024)
